“Also recorded” adds a separate entry of the source. Where a SMILES comes first, the peptide text is derived from it. [ ]: non-standard residue; d: D form. pGlu = O=C1CC[C@@H](C(=O)O)N1
Columns and labels:
[1] = test system: mice; test: Osmotic pump study 2: 7-day infusion, IP GTT; format: in vivo, mouse; details: osmotic pump 7 days, 2 g/kg IP GTT on day 7, n = 8/group, vs vehicle, T test
Method: (§1) Three studies were performed to assess the in vivo efficacy of the ChgA 435−462a and Gast p59−79 (see Figure legends for specifics of each study). Peptides were administered by osmotic pumps implanted subcutaneously under isoflurane anaesthesia. Food intake was assessed using BioDaq (Research Diets) automated food intake cages. Intraperitoneal (IP) glucose tolerance tests (GTT) were performed by administering a 2 g/kg challenge of glucose and measuring blood glucose levels from the tail vein whereas oral GTT (OGTT) were performed using 1 g/kg glucose challenge. Insulin tolerance tests (ITT) were performed by administering a 0.75 U/kg dose of insulin IP to the mice and assessing blood glucose levels at 15, 30, 45, 60, 90 and 120 min post-insulin challenge.
Fig. 7 In vivo characterisation of novel peptides. (A-C) PK data of ChgA 435-462a, Gast p59-79, Sst 25-36. (D-G) Data from 1st osmotic pump study where n = 5/group. […] Body weights (E) and food intake (D) were measured throughout the study. Week 0 and day -7 represent baseline data prior to treatment onset. Glucose tolerance was assessed every 7 days after surgery via an IP GTT using a 2 g/kg glucose challenge. Results from IP GTT on day 28 shown in (F, G). Statistical analysis performed using Kruskal-Wallis test with post-hoc Dunn tests. (H, I) Results from osmotic pump study 2 where n = 8/group. […]

[2] = test system: primary mouse islets; test: Islet secretion studies; format: cell-based; details: 100 nM peptide, 1 or 16.7 mM glucose, 45 min at 37 °C, LC–MS/MS, n = 9 per group, Mann-Whitney U test
Method: Mice were culled by cervical dislocation and the pancreas inflated by […] injection of a 0.75 mg/mL collagenase V (Sigma-Aldrich) solution in HBSS before removal of the pancreas. The pancreas was incubated at 37 °C for 12 min to liberate islets. The digested tissue was washed in HBSS with 0.1 % BSA before islets were hand-picked under a light microscope. Islets were rested for 1 h by incubating at 37 °C in Krebs’s ringer buffer (KRB, 129 mM NaCl, 2 mM NaHCO3, 4.8 mM KCl, 1.2 mM KH2PO4, 2.5 mM CaCl2, 1.2 mM MgSO4, 10 mM HEPES and adjusted to pH 7.4 with 1 M NaOH.) with 0.1 % BSA and 5.5 mM glucose. Ten size matched islets were then transferred to a 2 mL protein LoBind Eppendorf tubes for 45 min at 37 °C with KRB + 0.001% BSA + one of the following: 1 mM glucose, 16.7 mM glucose, 1 mM glucose + 100 nM Gast p59−79 or 16.7 mM glucose + 100 nM Gast p59−79. At the end of the incubation the supernatant was removed and snap frozen. On the day of analysis all supernatants were defrosted, acidified with 30 μL of 1% FA (aq) (v/v) and extracted with SPE.
Peptides were quantified on as in section 2.8.3. Table 2 details the peptides quantified as well as their product ions, precursor ions, collision energies and dwell times.
Fig. 9 Effect of Gast p59-79 on glucagon (A), insulin-1 (B) and SST-14 (C) secretion from isolated mouse islets. Data represents n = 9 per group. Statistical analysis was performed using a Mann-Whitney U test. Data expressed as peak area normalised to islet number.

[3] = test system: diet-induced obese mice (DIO); test: Osmotic pump study 3: IP GTT, OGTT and ITT in diet-induced obese mice; format: in vivo, mouse; details: vs vehicle
Method: as §1
Fig. 7 In vivo characterisation of novel peptides. (A-C) PK data of ChgA 435-462a, Gast p59-79, Sst 25-36. (D-G) Data from 1st osmotic pump study where n = 5/group. […] Body weights (E) and food intake (D) were measured throughout the study. Week 0 and day -7 represent baseline data prior to treatment onset. Glucose tolerance was assessed every 7 days after surgery via an IP GTT using a 2 g/kg glucose challenge. Results from IP GTT on day 28 shown in (F, G). Statistical analysis performed using Kruskal-Wallis test with post-hoc Dunn tests. (H, I) Results from osmotic pump study 2 where n = 8/group. Mice singly housed and infused with either Gast p59-79 or vehicle for 7 days. 2 g/kg IP GTT performed on day 7 and results shown in H and I. Statistical analysis performed using T test. (J-P) Results from osmotic pump study 3 where n = 7/group. Mice singly housed and infused with either Gast p59-79 or vehicle for 7 days. 2 g/kg IP GTT performed on day 7 (J, K) and 1 g/kg OGTT performed on day 14 (L, M). 0.75 U/kg ITT performed on day 21 (N, O). Body weights vs AUC during ITT on day 21 (P). Error bars represent SD. *P < 0.05, **p < 0.01, ***p < 0.005.

CC[C@H](C)[C@H](NC(=O)[C@H](Cc1ccccc1)NC(=O)[C@H](Cc1c[nH]cn1)NC(=O)[C@H](CCC(N)=O)NC(=O)[C@@H]1CCCN1C(=O)CNC(=O)[C@H](CCC(N)=O)NC(=O)[C@@H]1CCCN1C(=O)CNC(=O)[C@H](CC(C)C)NC(=O)[C@@H]1CCC(=O)N1)C(=O)N[C@@H](C)C(=O)N[C@@H](CC(=O)O)C(=O)N[C@@H](CC(C)C)C(=O)N[C@@H](CO)C(=O)N[C@@H](CCCCN)C(=O)N[C@@H](CCCCN)C(=O)N[C@@H](CCC(N)=O)C(=O)N[C@@H](CCCNC(=N)N)C(=O)N1CCC[C@H]1C(=O)N[C@@H](CCCNC(=N)N)C(=O)O [Gast p59−79] ([pGlu]LGPQGPQHFIADLSKKQRPR-OH; C-terminus assumed)
glucose tolerance in IP GTT, second mouse cohort [1]: modestly improves glucose tolerance | SST-14 secretion from isolated islets [2]: No significant effect | glucagon secretion from isolated islets [2]: No significant effect | insulin-1 secretion from isolated islets [2]: No significant effect | AUC during ITT ([3]; 0.75 U/kg ITT day 21, n = 7/group, significant effect of body weight on AUC (p = 0.009), two-way ANOVA): also evident in the AUCs (p = 0.011) | blood glucose levels in ITT ([3]; 0.75 U/kg insulin IP on day 21, n = 7/group, confounded by body weight): differed at 90 and 120 min post-insulin challenge; also recorded: appeared to slow glucose normalisation following an ITT | glucose tolerance (IP GTT and OGTT) in DIO mice ([3]; osmotic pump, 2 g/kg IP GTT day 7, 1 g/kg OGTT day 14, n = 7/group, confounded by weight loss): did not suggest that Gast p59−79 affected glucose tolerance

Reference: PMC8121762, “Peptidomics of enteroendocrine cells and characterisation of potential effects of a novel preprogastrin derived-peptide on glucose tolerance in lean mice” (Peptides, 2021)
